This note sets out measurements from patent US7514448B2, “Azaindoles useful as inhibitors of rock and other protein kinases” (Vertex Pharmaceuticals Incorporated, priority 2004, dated 2009).

In assay [1] the target is ROCK (Homo sapiens, UniProt Q13464). Nature of the assay: ROCK radioactive assay ("33P"). To be noted: radioactive assay; average Ki if more than one determined; read-out: ROCK 33P Ki. Format: biochemical. The source says:
If more than one value of Ki has been determined, the average Ki is indicated. If no value is indicated, then the Ki was not determined.

In assay [2] the target is PKA (Homo sapiens, UniProt P17612). Nature of the assay: PKA inhibition assay, coupled enzyme. Conditions: average Ki if more than one determined. Format: biochemical. On the procedure: Compounds were screened for their ability to inhibit PKA using a standard coupled enzyme assay (Fox et al., Protein Sci, 1998, 7, 2249). Assays were carried out in a mixture of 100 mM HEPES (pH 7.5), 10 mM MgCl2, 25 mM NaCl, 1 mM DTT and 3% DMSO. Final substrate concentrations in the assay were 50 μM ATP (Sigma Chemicals) and 80 μM peptide (Kemptide, American Peptide, Sunnyvale, Calif.). Assays were carried out at 30° C. and 18 nM PKA. Final concentrations of the components of the coupled enzyme system were 2.5 mM phosphoenolpyruvate, 300 μM NADH, 30 μg/ml pyruvate kinase and 10 μg/ml lactate dehydrogenase.
An assay stock buffer solution was prepared containing all of the reagents listed above, with the exception of ATP, and the test compound of the present invention. […] The plate was preincubated for 10 minutes at 30° C. and the reaction initiated by addition of 5 μl of ATP (final concentration 50 μM). Initial reaction rates were determined with a Molecular Devices SpectraMax Plus plate reader over a 15 minute time course. IC50 and Ki data were calculated from non-linear regression analysis using the Prism software package (GraphPad Prism version 3.0a for Macintosh, GraphPad Software, San Diego Calif., USA).

ROCK, sequence (Q13464 whole entry): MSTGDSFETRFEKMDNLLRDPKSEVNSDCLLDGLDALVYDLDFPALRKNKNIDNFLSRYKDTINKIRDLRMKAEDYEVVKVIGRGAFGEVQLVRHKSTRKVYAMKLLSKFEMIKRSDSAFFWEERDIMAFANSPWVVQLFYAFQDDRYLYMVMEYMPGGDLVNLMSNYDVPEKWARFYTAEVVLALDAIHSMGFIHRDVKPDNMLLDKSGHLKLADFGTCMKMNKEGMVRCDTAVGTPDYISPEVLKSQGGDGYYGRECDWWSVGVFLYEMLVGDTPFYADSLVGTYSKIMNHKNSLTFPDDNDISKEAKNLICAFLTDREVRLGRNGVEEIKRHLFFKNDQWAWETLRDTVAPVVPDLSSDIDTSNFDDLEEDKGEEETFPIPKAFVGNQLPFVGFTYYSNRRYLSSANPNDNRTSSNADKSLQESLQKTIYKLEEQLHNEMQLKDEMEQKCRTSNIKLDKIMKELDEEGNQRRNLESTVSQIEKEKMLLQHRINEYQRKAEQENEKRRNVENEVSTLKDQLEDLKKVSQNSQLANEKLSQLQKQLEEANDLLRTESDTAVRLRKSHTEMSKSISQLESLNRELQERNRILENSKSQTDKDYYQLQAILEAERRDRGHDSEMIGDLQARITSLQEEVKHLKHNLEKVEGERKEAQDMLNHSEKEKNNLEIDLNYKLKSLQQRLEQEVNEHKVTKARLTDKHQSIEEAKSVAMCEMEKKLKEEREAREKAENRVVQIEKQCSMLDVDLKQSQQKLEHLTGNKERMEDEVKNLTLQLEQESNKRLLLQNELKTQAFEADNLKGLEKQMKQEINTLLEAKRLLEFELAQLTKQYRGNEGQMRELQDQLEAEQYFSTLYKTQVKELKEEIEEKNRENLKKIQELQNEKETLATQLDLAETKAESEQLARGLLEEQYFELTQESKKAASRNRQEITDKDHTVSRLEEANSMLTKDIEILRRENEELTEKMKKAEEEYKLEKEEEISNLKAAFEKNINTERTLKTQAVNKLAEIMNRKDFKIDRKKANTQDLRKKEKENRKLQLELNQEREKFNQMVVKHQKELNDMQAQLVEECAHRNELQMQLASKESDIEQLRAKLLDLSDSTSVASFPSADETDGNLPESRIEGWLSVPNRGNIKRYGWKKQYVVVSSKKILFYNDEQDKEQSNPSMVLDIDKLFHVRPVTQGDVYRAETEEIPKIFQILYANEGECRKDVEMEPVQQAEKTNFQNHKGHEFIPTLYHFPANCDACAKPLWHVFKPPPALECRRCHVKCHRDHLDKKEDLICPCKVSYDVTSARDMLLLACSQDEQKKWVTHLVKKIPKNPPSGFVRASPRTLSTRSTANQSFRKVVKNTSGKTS

As usually defined, the Ki is a dissociation constant, usually derived from enzyme kinetics or from competition with a known ligand. As for `O=C(Nc1nc(-c2c[nH]c3ncccc23)cs1)C1(O)CC1` [II-158], the Ki in assay [1] and in assay [2] was less than 500 nM in each case.

`CC(C)C(O)C(=O)Nc1nc(-c2c[nH]c3ncccc23)cs1` (stereo not shown) [II-159]: the Ki in assay [1] and in assay [2] was less than 500 nM throughout.

Consider `CC(C)CC(=O)C(=O)Nc1nc(-c2c[nH]c3ncccc23)cs1` [II-160], for which the Ki in assay [1] and in assay [2] was less than 500 nM in each case.

Regarding `CS(=O)(=O)CC(=O)Nc1nc(-c2c[nH]c3ncccc23)cs1` [II-161], the Ki in assay [1] and in assay [2] was less than 500 nM each time.

For `CCC(=O)Nc1nc(-c2c[nH]c3ncccc23)cs1` [II-163], the Ki in assay [1] was less than 500 nM; in assay [2], 500 to 5000 nM.

Regarding `CC(=O)NCCC(=O)Nc1nc(-c2c[nH]c3ncccc23)cs1` [II-164], the Ki in assay [1] was less than 500 nM; in assay [2], 500 to 5000 nM.

Consider `NCC(=O)Nc1nc(-c2c[nH]c3ncccc23)cs1` [II-165], for which the inhibition constant (Ki) in assay [1] and in assay [2] was less than 500 nM in each case.

As for `CC(C)C[C@H](N)C(=O)Nc1nc(-c2c[nH]c3ncccc23)cs1` [II-166], the Ki in assay [1] and in assay [2] was less than 500 nM in each case.

With `CN1CCN(CCCS(=O)(=O)Nc2cccc(CC(=O)Nc3nc(-c4c[nH]c5ncccc45)cs3)c2)CC1` [II-167], the Ki in assay [1] and in assay [2] was less than 500 nM in each case.

`O=C(Cc1cccc(NS(=O)(=O)CCCN2CCCCC2)c1)Nc1nc(-c2c[nH]c3ncccc23)cs1` [II-168]: the Ki in assay [1] and in assay [2] was less than 500 nM in each case.

For `O=C(Cc1cccc(NS(=O)(=O)CCCN2CCOCC2)c1)Nc1nc(-c2c[nH]c3ncccc23)cs1` [II-169], the Ki in assay [1] and in assay [2] was less than 500 nM in each case.

For the compound `O=C(Nc1nc(-c2c[nH]c3ncccc23)cs1)[C@@H]1CCCN1` [II-171], the Ki in assay [1] and in assay [2] was less than 500 nM in each case.

In the case of `O=C(Nc1nc(-c2c[nH]c3ncccc23)cs1)C1CCOC1` (stereo not shown) [II-172], the Ki in assay [1] and in assay [2] was less than 500 nM each time.

Take `O=C(Nc1nc(-c2c[nH]c3ncccc23)cs1)C1CCCNC1` (stereo not shown) [II-173]: the Ki in assay [1] and in assay [2] was less than 500 nM each time.

`O=C(Nc1nc(-c2c[nH]c3ncccc23)cs1)C1CCNCC1` [II-174]: the inhibitory constant (Ki) in assay [1] was less than 500 nM; in assay [2] it was 500 to 5000 nM.

As to `O=C(Nc1nc(-c2c[nH]c3ncccc23)cs1)C1CCOCC1` [II-175], the Ki in assay [1] and in assay [2] was less than 500 nM in each case.

As for `N[C@@H](Cc1ccccc1)C(=O)Nc1nc(-c2c[nH]c3ncccc23)cs1` [II-176], the Ki in assay [1] and in assay [2] was less than 500 nM throughout.

On to `N[C@H](Cc1ccccc1)C(=O)Nc1nc(-c2c[nH]c3ncccc23)cs1` [II-177], for which the Ki in assay [1] and in assay [2] was less than 500 nM throughout.

Regarding `CN[C@@H](Cc1ccccc1)C(=O)Nc1nc(-c2c[nH]c3ncccc23)cs1` [II-178], the inhibition constant Ki in assay [1] and in assay [2] was less than 500 nM throughout.

With `CNCC(=O)Nc1nc(-c2c[nH]c3ncccc23)cs1` [II-179], the Ki in assay [1] and in assay [2] was less than 500 nM each time.

In the case of `NCCC(=O)Nc1nc(-c2c[nH]c3ncccc23)cs1` [II-180], the Ki in assay [1] and in assay [2] was less than 500 nM throughout.

Turning to `O=C(c1nc(-c2c[nH]c3ncccc23)cs1)N1CCNCC1` [II-181], the Ki in assay [1] and in assay [2] was less than 500 nM each time.

Regarding `C[C@@H](CO)NC(=O)c1nc(-c2c[nH]c3ncccc23)cs1` [II-182], the Ki in assay [1] was less than 500 nM; in assay [2] it was 500 to 5000 nM.

For the compound `CC(C)C(CO)NC(=O)c1nc(-c2c[nH]c3ncccc23)cs1` (stereo not shown) [II-183], the Ki was less than 500 nM in assay [1] and 500 to 5000 nM in assay [2].

As to `O=C(N[C@H](CO)c1ccccc1)c1nc(-c2c[nH]c3ncccc23)cs1` [II-184], the Ki in assay [1] and in assay [2] was less than 500 nM throughout.

For the compound `O=C(N[C@@H](CO)c1ccccc1)c1nc(-c2c[nH]c3ncccc23)cs1` [II-185], the Ki is less than 500 nM in assay [1] and 500 to 5000 nM in assay [2].

Turning to `O=C(NC1CCN(Cc2ccccc2)C1)c1nc(-c2c[nH]c3ncccc23)cs1` (stereo not shown) [II-186], the values for the Ki in assay [1] and in assay [2] were less than 500 nM and 500 to 5000 nM, respectively.

As to `O=C(NC1CCNCC1)c1nc(-c2c[nH]c3ncccc23)cs1` [II-187], the inhibition constant Ki in assay [1] and in assay [2] was less than 500 nM throughout.

Turning to `O=C(CNCc1ccccc1)Nc1nc(-c2c[nH]c3ncccc23)cs1` [II-188], the inhibition constant Ki in assay [1] and in assay [2] was less than 500 nM each time.

Turning to `NCCC(C(=O)Nc1nc(-c2c[nH]c3ncccc23)cs1)c1ccccc1` (stereo not shown) [II-189], the Ki in assay [1] and in assay [2] was less than 500 nM throughout.

Regarding `NCCC(C(=O)Nc1nc(-c2c[nH]c3ncccc23)cs1)c1ccc(F)cc1` (stereo not shown) [II-190], the Ki in assay [1] and in assay [2] was less than 500 nM each time.

In the case of `NCCC(C(=O)Nc1nc(-c2c[nH]c3ncccc23)cs1)c1ccc(F)cc1F` (stereo not shown) [II-191], the Ki in assay [1] and in assay [2] was less than 500 nM throughout.

Take `NCCC(C(=O)Nc1nc(-c2c[nH]c3ncccc23)cs1)c1ccccc1Cl` (stereo not shown) [II-192]: the Ki in assay [1] and in assay [2] was less than 500 nM each time.

Take `CN(C)S(=O)(=O)Nc1cccc(CC(=O)Nc2nc(-c3c[nH]c4ncccc34)cs2)c1` [II-193]: the Ki in assay [1] and in assay [2] was less than 500 nM in each case.

Consider `NCC(C(=O)Nc1nc(-c2c[nH]c3ncccc23)cs1)c1ccccc1Cl` (stereo not shown) [II-194], for which the Ki in assay [1] and in assay [2] was less than 500 nM throughout.

Turning to `NCC(C(=O)Nc1nc(-c2c[nH]c3ncccc23)cs1)c1cccc(Cl)c1Cl` (stereo not shown) [II-195], the Ki in assay [1] and in assay [2] was less than 500 nM in each case.

Take `NCC(C(=O)Nc1nc(-c2c[nH]c3ncccc23)cs1)c1ccc(F)cc1Cl` (stereo not shown) [II-196]: the Ki in assay [1] and in assay [2] was less than 500 nM throughout.

Take `c1cnc2[nH]cc(-c3csc(NCCCN4CCOCC4)n3)c2c1` [II-197]: the Ki in assay [1] and in assay [2] was 500 to 5000 nM throughout.

Take `CN1CCN(CCCNc2nc(-c3c[nH]c4ncccc34)cs2)CC1` [II-198]: the Ki in assay [1] and in assay [2] was 500 to 5000 nM each time.

For the compound `c1coc(CNc2nc(-c3c[nH]c4ncccc34)cs2)c1` [II-199], the Ki in assay [1] was less than 500 nM; in assay [2], 500 to 5000 nM.

Take `c1cnc2[nH]cc(-c3csc(NCC4CCCO4)n3)c2c1` (stereo not shown) [II-200]: the Ki in assay [1] and in assay [2] was 500 to 5000 nM throughout.

Regarding `CN1CCN(CCCN(C(=O)Cc2ccccc2)c2nc(-c3c[nH]c4ncccc34)cs2)CC1` [II-201], the inhibition constant (Ki) in assay [1] and in assay [2] was less than 500 nM throughout.

For `COc1cccc(CC(=O)N(CCCN2CCN(C)CC2)c2nc(-c3c[nH]c4ncccc34)cs2)c1` [II-202], the Ki in assay [1] and in assay [2] was less than 500 nM each time.

`CN1CCN(CCCN(C(=O)Cc2cccc(NS(C)(=O)=O)c2)c2nc(-c3c[nH]c4ncccc34)cs2)CC1` [II-203]: the Ki in assay [1] and in assay [2] was less than 500 nM throughout.

For the compound `CC(=O)N(CCCN1CCN(C)CC1)c1nc(-c2c[nH]c3ncccc23)cs1` [II-204], the inhibition constant Ki in assay [1] is less than 500 nM; in assay [2], 500 to 5000 nM.

`O=C(Cc1cccnc1)Nc1nc(-c2c[nH]c3ncccc23)cs1` [II-205]: the Ki in assay [1] and in assay [2] was less than 500 nM in each case.

Take `O=C(Cc1cccnc1)Nc1nc(-c2c[nH]c3ncc(F)cc23)cs1` [II-206]: the Ki in assay [1] and in assay [2] was less than 500 nM in each case.
